Results: BindingDB's records for doi:10.1021/jm00381a012 (1985)

Target: T1, Angiotensin-converting enzyme (Oryctolagus cuniculus, UniProt P12822)
T1 sequence (P12822 whole entry): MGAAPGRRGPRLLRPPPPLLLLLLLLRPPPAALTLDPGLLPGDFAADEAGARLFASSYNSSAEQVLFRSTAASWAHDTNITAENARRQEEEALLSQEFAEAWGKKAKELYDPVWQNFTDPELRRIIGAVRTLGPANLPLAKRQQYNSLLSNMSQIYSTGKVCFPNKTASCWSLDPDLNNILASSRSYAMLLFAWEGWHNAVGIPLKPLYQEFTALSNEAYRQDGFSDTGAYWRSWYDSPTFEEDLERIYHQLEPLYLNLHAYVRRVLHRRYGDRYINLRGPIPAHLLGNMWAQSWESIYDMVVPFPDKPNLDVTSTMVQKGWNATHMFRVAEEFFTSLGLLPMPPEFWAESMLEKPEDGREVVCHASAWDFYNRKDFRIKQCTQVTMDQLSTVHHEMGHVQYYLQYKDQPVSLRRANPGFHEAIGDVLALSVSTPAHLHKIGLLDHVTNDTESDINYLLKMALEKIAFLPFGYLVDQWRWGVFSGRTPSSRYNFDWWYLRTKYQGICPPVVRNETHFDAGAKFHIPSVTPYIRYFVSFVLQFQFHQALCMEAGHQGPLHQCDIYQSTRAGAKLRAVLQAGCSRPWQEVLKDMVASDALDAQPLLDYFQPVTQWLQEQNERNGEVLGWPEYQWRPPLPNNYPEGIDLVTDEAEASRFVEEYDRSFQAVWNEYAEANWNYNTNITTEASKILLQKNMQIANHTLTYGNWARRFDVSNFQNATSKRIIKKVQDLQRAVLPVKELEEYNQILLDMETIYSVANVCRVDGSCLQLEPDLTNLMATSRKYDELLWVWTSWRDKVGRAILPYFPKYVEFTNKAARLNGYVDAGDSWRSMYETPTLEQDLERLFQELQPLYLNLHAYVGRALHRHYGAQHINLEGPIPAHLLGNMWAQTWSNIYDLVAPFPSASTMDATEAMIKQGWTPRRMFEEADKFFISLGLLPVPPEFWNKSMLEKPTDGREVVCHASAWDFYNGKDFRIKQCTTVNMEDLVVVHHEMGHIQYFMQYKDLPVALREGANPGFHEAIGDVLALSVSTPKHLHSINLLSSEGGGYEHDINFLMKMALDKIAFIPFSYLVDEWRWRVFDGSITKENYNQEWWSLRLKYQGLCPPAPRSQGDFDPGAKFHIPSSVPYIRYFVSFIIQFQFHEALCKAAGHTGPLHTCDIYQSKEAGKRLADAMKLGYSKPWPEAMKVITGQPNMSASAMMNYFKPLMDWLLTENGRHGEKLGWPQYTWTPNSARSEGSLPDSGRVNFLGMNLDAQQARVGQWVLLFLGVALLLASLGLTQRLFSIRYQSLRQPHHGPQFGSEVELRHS
Test: ChEBML_34797

Row | IC50 | SMILES
1 | > 100 µM | O=C(O)CN(C(=O)c1ccc(Cl)cc1S)C1CCCC1
2 | > 100 µM | CC(C)(C)C(=O)Sc1ccccc1C(=O)N(CC(=O)O)C1CCCC1
3 | > 100 µM | CC(=O)Sc1c(C(=O)N(CC(=O)O)C2CCCC2)cccc1C(C)C
